Measurements: patent publication US10444230B2, “Method and system for determination of molecular interaction parameters” (GE Healthcare Bio-Sciences AB, priority 2003, dated 2019)

Legend:
[1] = biological target: Thrombin (Sigma T 1063) (Homo sapiens, UniProt P00734); conditions: ligand densities approx. 2300 and 600 RU; 10 mM PBS, 0.005% P20, 5% DMSO, 3.4 mM EDTA
[2] = biological target: T1, Carbonic anhydrase (Sigma C3640) (Bos taurus, UniProt P00921); test: SPR (BIACORE S51) sequential injection kinetics, inhibitors binding to immobilized carbonic anhydrase
T1 construct: purchased Sigma C3640
T1 sequence (P00921 whole entry): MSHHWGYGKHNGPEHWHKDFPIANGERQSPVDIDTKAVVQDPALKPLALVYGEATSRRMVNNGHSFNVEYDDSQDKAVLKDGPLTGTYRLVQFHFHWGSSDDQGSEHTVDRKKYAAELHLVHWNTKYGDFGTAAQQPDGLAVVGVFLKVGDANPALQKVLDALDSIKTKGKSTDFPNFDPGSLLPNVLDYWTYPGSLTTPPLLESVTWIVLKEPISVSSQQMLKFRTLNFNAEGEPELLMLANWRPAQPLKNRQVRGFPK
Description: Kinetic analysis was performed by injecting inhibitors in 10 mM PBS buffer with 0.005% P20 and 5% DMSO at a flow of 30 μl/min.

## N=C(N)c1ccc(CNC(=O)[C@@H]2CCN2C(=O)[C@H](NCC(=O)O)C2CCCCC2)cc1 [melagatran]
[1]
  ka: 2e+07 M⁻¹ s⁻¹
  kd: 0.018 s⁻¹

## NS(=O)(=O)c1ccccc1 [benzenesulfonamide]
[2]; read-out: ka
  kon: 160000 M⁻¹ s⁻¹
[2]; two ligand densities, approx. 2000 and 700 RU, 10 mM PBS, 0.005% P20, 5% DMSO
  kd: 0.14 s⁻¹
